{
  "source": "patent US20140296316A1",
  "about": "“HYDRATE AND CRYSTAL OF FLUORENE COMPOUNDS” (JAPAN TOBACCO INC., priority 2013, published 2014)",
  "key": {"[1]": {"biological_target": "T1, human PDHK1 (hPDHK1) (Homo sapiens, UniProt Q15118)", "T1 construct": "made in house; host or cells: Escherichia coli BL21(DE3), pET17b vector", "T1 sequence (Q15118 29-436)": "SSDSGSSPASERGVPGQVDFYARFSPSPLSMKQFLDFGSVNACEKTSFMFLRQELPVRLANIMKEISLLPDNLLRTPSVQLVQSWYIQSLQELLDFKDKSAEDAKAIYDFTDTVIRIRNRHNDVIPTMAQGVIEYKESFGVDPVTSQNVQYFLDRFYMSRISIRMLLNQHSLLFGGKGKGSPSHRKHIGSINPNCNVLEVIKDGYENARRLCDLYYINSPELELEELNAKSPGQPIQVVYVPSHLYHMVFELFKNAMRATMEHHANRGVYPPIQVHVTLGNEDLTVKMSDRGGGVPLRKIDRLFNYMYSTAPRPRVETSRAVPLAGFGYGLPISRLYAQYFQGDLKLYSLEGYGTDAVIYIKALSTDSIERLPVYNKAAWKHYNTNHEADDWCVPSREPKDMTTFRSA", "assay": "Inhibitory action of PDHK1 activity in vitro (residual PDH activity after kinase reaction)", "type": "biochemical", "settings": "PDH/hPDHK1 complex, PDHK reaction 45 min at room temperature", "description": "(§1) The inhibitory action of PDHK activity was assessed indirectly by measuring the residual PDH activity after kinase reaction in the presence of a test compound.\nIn the case of human PDHK1 (hPDHK1, Genbank Accession No. L42450.1), a 1.3 kbp fragment encoding this protein was isolated from human liver cDNA by polymerase chain reaction (PCR). Modified hPDHK1 cDNA wherein FLAG-Tag sequence was added to the N terminus was prepared by PCR and cloned into a vector (pET17b-Novagen). The recombinant construct was transformed into Escherichia coli (DH5α-TOYOB0). The recombinant clones were identified, and plasmid DNA was isolated and subjected to the DNA sequence analysis. One clone which had the expected nucleic acid sequence was selected for expression work. […]\nThen, 10 μL of substrates (5 mmol/L sodium pyruvate, 5 mmol/L Coenzyme A, 12 mmol/L NAD, 5 mmol/L thiamin pyrophosphate, diluted with buffer) were added. The mixture was incubated at room temperature for 90 min, and the residual PDH activity was measured.\nThe absorbance at 340 nm before and after PDH reaction was measured using a microplate reader to detect NADH produced by the PDH reaction. The hPDHK1 inhibition rate (%) of the test compound was calculated from the formula [{(PDH activity of the test compound−PDH activity of control)/PDH activity of blank−PDH activity of control)}×100]. […]"}, "[2]": {"assay": "Water adsorption and desorption test", "type": "physicochemical", "settings": "for weight decrease on pre-drying: pre-dried under a dried nitrogen stream, 60° C.; for weight increase by humidification after drying: with pre-drying, humidification up to relative humidity 10%, 25° C."}, "[3]": {"biological_target": "T2, human PDHK2 (hPDHK2) (Homo sapiens, UniProt Q15119)", "T2 construct": "made in house; host or cells: Escherichia coli BL21(DE3), pET17b vector", "assay": "Inhibitory action of PDHK2 activity in vitro (residual PDH activity after kinase reaction)", "type": "biochemical", "settings": "PDH/hPDHK2 complex, PDHK reaction 45 min at room temperature", "description": "as §1\nThe recombinant construct was transformed into Escherichia coli (DB5α-TOYOBO). The recombinant clones were identified, and plasmid DNA was isolated and subjected to the DNA sequence analysis. One clone which had the expected nucleic acid sequence was selected for expression work.\nFor expression of hPDHK2 activity, Escherichia coli strain BL21(DE3) cells (Novagen) were transformed with the pET17b vector containing modified hPDHK2 cDNA. The Escherichia coli were grown to an optical density 0.6 ([…]) at 30° C. Protein expression was induced by the addition of 500 μmol/L isopropyl-β-thiogalactopyranoside. […]\n0.05 U/mL PDH and 0.8 μg/mL hPDHK2 were mixed in a buffer (50 mmol/L 3-morpholinopropanesulfonic acid (pH 7.0), 20 mmol/L dipotassium hydrogen phosphate, 60 mmol/L potassium chloride, 2 mmol/L magnesium chloride, 0.4 mmol/L EDTA, and 0.2% Pluronic F-68, 2 mmol/L dithiothreitol), and the mixture was incubated at 4° C. overnight to obtain a PDH/hPDHK2 complex. […] The mixture was incubated at room temperature for 90 min, and the residual PDH activity was measured. The absorbance at 340 nm before and after PDH reaction was measured using a microplate reader to detect NADH produced by the PDH reaction. […]"}, "[4]": {"assay": "Water adsorption and desorption test", "type": "physicochemical", "settings": "for hygroscopicity: conclusion of the water adsorption and desorption test; for hygroscopicity / moisture absorption under relative humidity 95%: without pre-drying", "description": "Water adsorption and desorption test was performed using a water equilibrium measuring apparatus (SGA-100, manufactured by VTI).\nA water adsorption and desorption test was performed by the following method.\nMethod 1 (without Pre-Drying):\nForm I crystal (about 10 mg) was weighed in a quartz cell, and a weight change ratio was measured when it reached equilibrium at 25° C. and each relative humidity, by using a water equilibrium measuring apparatus (SGA-100, manufactured by VTI).\nTest temperature: 25° C. Equilibrating conditions: weight change ratio was not more than 0.03% in 5 min Maximum equilibrating time: 180 min Change of relative humidity: increased from 5% to 95% at 5% intervals, and decreased from 95% to 5% at 5% intervals. Method 2 (with Pre-Drying):\nForm I crystal (about 10 mg) was weighed in a quartz cell, dried under a dried nitrogen stream at 60° C., and a weight change ratio was measured when it reached equilibrium at 25° C. and each relative humidity, by using a water equilibrium measuring apparatus (SGA-100, manufactured by VTI).\nTest temperature: 25° C. Equilibrating conditions: weight change ratio was not more than 0.03% in 5 min Maximum equilibrating time: 180 min Change of relative humidity: increased from 5% to 95% at 5% intervals, and decreased from 95% to 5% at 5% intervals.\nIn the water adsorption and desorption test, the measurement was performed under two conditions of “with pre-drying (drying before test)” and “without pre-drying (drying before test)”, wherein humidification and drying were repeated once. […] Therefore, it was assumed that pre-drying completely evaporated crystal water."}},
  "data": [
    {"molecule": "CC(CO)(CO)n1cc(-c2cc(F)cc3c2-c2ccccc2[C@]3(O)C(F)(F)F)cn1", "note": "[Form I crystal of compound (Ah), 0.5 hydrate of 2-{4-[(9R)-2-fluoro-9-hydroxy-9-(trifluoromethyl)-9H-fluoren-4-yl]-pyrazol-1-yl}-2-methyl-propane-1,3-diol]", "values": [
      {"measurement": "IC50", "setting": "[1]", "value": 26, "unit": "nM"},
      {"measurement": "weight decrease on pre-drying", "setting": "[2]", "value": 2.15, "unit": "%"},
      {"measurement": "weight increase by humidification after drying", "setting": "[2]", "value": 2.44, "unit": "%"},
      {"measurement": "IC50", "setting": "[3]", "value": 14, "unit": "nM"},
      {"measurement": "hygroscopicity", "setting": "[4]", "value": "does not have hygroscopicity"},
      {"measurement": "moisture absorption under relative humidity 95%", "setting": "[4]; 25° C.", "value": "remarkable moisture absorption was not found"}
    ]},
    {"molecule": "Cc1cc(-c2cnn(C(CO)(CO)CO)c2)c2c(c1)[C@@](O)(C(F)(F)F)c1ccccc1-2", "note": "[Form IVb crystal of compound (Bh), 2 hydrate of 2-hydroxymethyl-2-{4-[(9R)-9-hydroxy-2-methyl-9-(trifluoromethyl)-9H-fluoren-4-yl]-pyrazol-1-yl}-propane-1,3-diol]", "values": [
      {"measurement": "IC50", "setting": "[3]", "value": 20, "unit": "nM"},
      {"measurement": "hygroscopicity", "setting": "[4]", "value": "does not have hygroscopicity"},
      {"measurement": "weight decrease on pre-drying", "setting": "[4]; pre-dried under a dried nitrogen stream, 60° C.", "value": 7.75, "unit": "%"},
      {"measurement": "weight increase by humidification after drying", "setting": "[4]; with pre-drying, humidification up to relative humidity 50%, 25° C.", "value": 7.93, "unit": "%"},
      {"measurement": "moisture absorption under relative humidity 95%", "setting": "[4]; 25° C.", "value": "remarkable moisture absorption was not found"}
    ]},
    {"molecule": "CC(CO)(CO)n1cc(-c2cc(F)cc3c2-c2ccccc2[C@]3(O)C(F)(F)F)cn1", "note": "[Form V crystal of compound (Ah), 0.5 hydrate of 2-{4-[(9R)-2-fluoro-9-hydroxy-9-(trifluoromethyl)-9H-fluoren-4-yl]-pyrazol-1-yl}-2-methyl-propane-1,3-diol]", "values": [
      {"measurement": "weight decrease on pre-drying", "setting": "[2]", "value": 2.36, "unit": "%"},
      {"measurement": "weight increase by humidification after drying", "setting": "[2]", "value": 2.46, "unit": "%"},
      {"measurement": "hygroscopicity", "setting": "[4]", "value": "does not have hygroscopicity"},
      {"measurement": "moisture absorption under relative humidity 95%", "setting": "[4]; 25° C.", "value": "remarkable moisture absorption was not found"}
    ]}
  ]
}
